According to PMC9563435, “Comparison of Different Clinical Chemotherapeutical Agents’ Toxicity and Cell Response on Mesenchymal Stem Cells and Cancer Cells” (Cells, 2022):
Entries after “also recorded” stand apart in the source; their conditions may differ. Where a name gives a salt, the structure may show the parent alone.

Tests used:
Ad-MSC 3 cells [1] = test: Apoptosis assay (Annexin V / TO-PRO-3 flow cytometry), Ad-MSC 3; type: cell-based, human; details: for apoptosis induction in MSCs (in words): several concentrations, data not shown; for type of cell death in MSCs (in words): high concentrations: doxorubicin 1 µM, nutlin-3 50 µM
Procedure: Apoptosis detection was based on the Annexin-V molecule binding to phosphatidylserine membrane molecules. Two cell lines were used to study apoptosis: Ad-MSC 3 cells were plated in a 5 × 10^4 cells/well concentration, while 4 × 10^4/well A431-mCh were seeded into each well in a 12-well tissue culture plate. […] At day 5, cells were trypsinized and centrifuged, while the supernatant was also collected and combined with the detached cells to include all already dead cells. Cells were washed twice with 500 µL of 1% BSA-PBS (bovine serum albumin dissolved in PBS, A8022, Sigma-Aldrich, St. Louis, MO, USA) solution and centrifuged at 400× G for 4 min. Cells were resuspended in 100 µL of 1× Annexin Binding Buffer (422201, Biolegend, San Diego, CA, USA), and 3 µL of Annexin V-Pacific Blue (A35122, Biolegend, San Diego, CA, USA) and 1 µL of TO-PRO-3 (R37170, Invitrogen, Waltham, MA, USA) were added to each sample. After 15 min of incubation, labeled and non-labeled samples were diluted 5-fold with 1× Annexin Binding Buffer and analyzed by Attune™ NxT flow cytometer.

[2] = system: 6 MSCs and 3 cancer cell lines; test: Cytotoxicity / cell viability assay (PrestoBlue), panel of MSCs and cancer cell lines; type: cell-based, human; details: for drug sensitivity of MSCs compared with cancer cells (in words): IC50 comparison
Procedure: (§1) Cells were seeded in a 96-well tissue culture plate in 100 µL of medium. Ad-MSC-GFP 1, iAd-MSC-GFP 1, Ad-MSC-GFP 2, Ad-MSC-GFP 3, BM-MSC, and HFF were seeded at 5 × 10^3/100 µL/well density and A431-mCh, MES-SA-mCh, and MCF-7-GFP at 4 × 10^3 cells/100 µL/well concentration in DMEM-F12 media. Different initial cell numbers were used due to different proliferation rates of different cell types. Cells were allowed to attach overnight at 37 °C and the day after were treated with the drugs using the indicated concentrations in 100 µL. Cell viability was measured by using PrestoBlue™ Cell Viability Reagent (A13232, Invitrogen, Waltham, MA, USA). To address metabolic differences between cancer cells and MSCs, the assay was optimized for each cell line, cells were incubated with 5 or 12.5% PrestoBlue™ Cell Viability Reagent diluted in PBS at 37 °C/5% CO2 for 1–1.5 h 5 days after the treatment. The fluorescence signal was measured by an EnSpire (Perkin Elmer, Waltham, MA, USA) fluorometer at 555 nm (excitation)/585 nm (emission) wavelength.
After the incubation period, the relative fluorescence data was measured. The data was normalized with the fluorescence of blank samples (cell culture media). A sigmoidal dose–response curve was fitted to the normalized measurement data and the logarithm of the concentration using the least square method. An inhibitory concentration of 50% (IC50 and log10) was interpolated from the fitted graph. […] In these cases, IC50 was calculated from the line connecting the measurement points. For repeated measurements, average and standard deviation was calculated based on the logarithm of the IC50 values.
To compare the mean IC50 values of six mesenchymal stem cell lines (Group-1) and three cancer cell lines (Group-2), first an F-test was performed to check equal variances between the groups, then two-sample unpaired t-tests were performed to calculate significance using Microsoft® Excel® 2016 (16.0.4266.1001).

A431 cells [3] = test: Cell proliferation (CytoTell) and light microscopy after treatment, A431; type: cell-based, human; details: 0.1 µM
Procedure: (§2) Cell division was analyzed by the fluorescent CytoTell Green dye (AAT Bioquest, Sunnyvale, CA, USA) according to the manufacturer’s guidelines. Briefly, 3 × 10^5 cells were centrifuged and stained with 2 µL of CytoTell dye diluted in 1 mL of serum-free DMEM and incubated at 37 °C for 30 min. After centrifugation, half of the cells (1.5 × 10^5) were plated into T25 cell culture flasks in 5 mL of media and analyzed at day 5. Day 1 samples were co-stained with Zombie Violet dye (423113, Biolegend) to exclude dead cells and analyzed by Attune™ NxT flow cytometry. Brightfield images were taken with the Olympus IX51 microscope. The scale bar is the same in every image.

A431 cells [4] = test: ROS induction (DCFH-DA), A431; type: cell-based, human; details: 1 h
Procedure: (§3) Ad-MSC 3 and A431 cells were seeded in a 96-well tissue culture plate and incubated for 24 h as described above. Cells were washed twice with HBSS and incubated in 100 µL of DCFH-DA dye (R252-10, Dojindo) according to the manufacturer’s instructions. Cells were incubated for 30 min at 37 °C and washed twice with HBSS. […] Supernatant was removed, and the cells were washed with HBSS before imaging with the JuLI^TM Stage Cell History Recorder (NanoEnTek).

A431-mCh cells [5] = test: γ-H2AX staining of DNA double-stranded breaks, A431-mCh; type: cell-based, human; details: 120 h; IC50 concentrations of A431 (2 µM cisplatin, 0.1 µM doxorubicin, 30 µM nutlin-3)
Procedure: (§4) Ad-MSC-GFP 3 cells were seeded into glass-bottomed chamber slides (ibidi, Germany, Grafelfing, Germany) at 1 × 10^4/well and A431-mCh at 1.6 × 10^4/well density. […] Cells in all chambers were fixed with 4% PFA for 15 min and washed twice with PBS. Blocking solution (0.5% BSA-PBS, 0.1% TritonX-100, 5% goat serum, and 1% fish gelatin) was used for 1 h. γ-H2A.X primary antibody (MA1-2022, Invitrogen, United States) was diluted in blocking solution at 1:500 concentration and incubated overnight at 4 °C. Afterwards, the cells were washed with PBS twice and goat anti-mouse A633 secondary antibody (A21052, abcam, Cambridge, UK) was diluted at 1:250 concentration in blocking solution. Nuclei was stained with a Hoechst-33342 (23491-52-3, Dojindo, Kumamoto, Japan) at 1:1000 concentration.
(§5) To quantify DNA damage based on immunofluorescence against γ-H2AX, a semi-automated image analysis pipeline was set up using CellProfiler v4.1.3 [10]. First, images showing DAPI-stained nuclei were pre-processed by intensity normalization and Gaussian filtering (ϭ = 20 px) to suppress noise and remove artifacts caused by debris. Nuclei candidates were identified by threshold-based segmentation; false candidates were removed from the analysis manually. Using the remaining nuclei regions as masks, pixel intensities were measured on the γ-H2AX channel, thus, excluding non-nuclei signals.

A431-mCh cells [6] = test: Live cell imaging, confluency, A431-mCh; type: cell-based, human; details: 120 h
Procedure: (§6) JuLI™ Stage Cell History Recorder was used to monitor a five-day cytotoxicity assay on Ad-MSC-GFP 3 and A431-mCh cell lines. […] Images were taken every 105 min for 120 h at 10× objective magnification. Live cell microscopy studies were evaluated using the “Growth curve” function of the JuLI STAT image analysis software (v2.0.1.0).

Ad-MSC-GFP 3 cells [7] = test: γ-H2AX staining of DNA double-stranded breaks, Ad-MSC-GFP 3; type: cell-based, human; details: 120 h; IC50 concentrations of A431 (2 µM cisplatin, 0.1 µM doxorubicin, 30 µM nutlin-3)
Procedure: as §4, §5

A431 cells [8] = test: Apoptosis assay (Annexin V / TO-PRO-3 flow cytometry), A431; details: 120 h
Ad-MSC 3 cells [9] = test: Cell proliferation (CytoTell) and light microscopy after treatment, Ad-MSC 3; type: cell-based, human; details: 0.1 µM
Procedure: as §2

Ad-MSC 3 cells [10] = test: ROS induction (DCFH-DA), Ad-MSC 3; type: cell-based, human; details: 1 h
Procedure: as §3

Ad-MSC-GFP 3 cells [11] = test: Cytotoxicity / cell viability assay (PrestoBlue) on Ad-MSC-GFP 3; type: cell-based, human; details: Homo sapiens, 120 h; Ad-MSC-GFP 3 / Ad-MSC 3, 5 days
Procedure: as §1
(§7) After the incubation period, the relative fluorescence data was measured. The data was normalized with the fluorescence of blank samples (cell culture media). […] In these cases, IC50 was calculated from the line connecting the measurement points. For repeated measurements, average and standard deviation was calculated based on the logarithm of the IC50 values.

Ad-MSC-GFP 3 cells [12] = test: Live cell imaging, confluency, Ad-MSC-GFP 3; type: cell-based, human
Procedure: as §6

A431-mCh cells [13] = test: Cytotoxicity / cell viability assay (PrestoBlue) on A431; type: cell-based, human
Procedure: as §1, §7

[14] = different concentrations incl. higher

OO [H2O2]
apoptosis induction in MSCs (in words) (Ad-MSC 3 cells [1]): not able to induce apoptosis

c1ccc(CN(CCN(Cc2ccccn2)Cc2ccccn2)Cc2ccccn2)nc1 [TPEN]
drug sensitivity of MSCs compared with cancer cells (in words) ([2]; 5 days treatment): equally toxic to both MSCs and cancer cells

[Cl][Co][Cl] [cobalt chloride]
apoptosis induction in MSCs (in words) (Ad-MSC 3 cells [1]): not able to induce apoptosis

COc1cccc2c1C(=O)c1c(O)c3c(c(O)c1C2=O)C[C@@](O)(C(=O)CO)C[C@@H]3O[C@H]1C[C@H](N)[C@H](O)[C@H](C)O1 [doxorubicin, doxorubicin hydrochloride]
cell killing (light microscopy) (A431 cells [3]): killed most of the cancer cells | proliferation (CytoTell) (A431 cells [3]; five-day treatment): decreased proliferation | ROS induction (A431 cells [4]; [14]): did not induce ROS | apoptosis (in words) (Ad-MSC 3 cells [1]; 0.1 µM, 120 h): apoptosis was not detected | apoptosis / cell death (in words) (Ad-MSC 3 cells [1]; concentration increased 10-fold (1 µM), 120 h): only late necrosis was found | type of cell death in MSCs (in words) (Ad-MSC 3 cells [1]): necrotic cell death | DNA damage (γ-H2AX) (A431-mCh cells [5]): massive DNA damage | number of viable colonies in live cell imaging (A431-mCh cells [6]; IC50 of A431-mCh and 10-fold higher concentration): significantly reduced the number of viable colonies | growth kinetics in live cell imaging (A431-mCh cells [6]; concentration 10-fold lower than A431-mCh IC50): did not alter growth kinetics | DNA double-stranded breaks (γ-H2AX) (Ad-MSC-GFP 3 cells [7]): no DNA break was detected | apoptosis (in words) (A431 cells [8]; 0.1 µM): apoptosis in almost all A431 cells | cell number (light microscopy) (Ad-MSC 3 cells [9]): reduced cell number | proliferation (CytoTell) (Ad-MSC 3 cells [9]; five-day treatment): decreased proliferation | ROS induction (Ad-MSC 3 cells [10]; [14]): did not induce ROS | drug sensitivity of MSCs compared with cancer cells (in words) ([2]; 5 days treatment): equally toxic to MSCs and cancer cells | IC50 (Ad-MSC-GFP 3 cells [11]): 0.1 µM | decrease of cultures in live cell imaging (Ad-MSC-GFP 3 cells [12]; 120 h of treatment): no significant decrease | IC50 (A431-mCh cells [13]; Homo sapiens, A-431, 120 h, A431, 5 days): 0.1 µM

CCc1c2c(nc3ccc(OC(=O)N4CCC(N5CCCCC5)CC4)cc13)-c1cc3c(c(=O)n1C2)COC(=O)[C@]3(O)CC [irinotecan, irinotecan hydrochloride]
drug sensitivity of MSCs compared with cancer cells (in words) ([2]; 5 days treatment): required significantly higher concentrations to kill MSCs than cancer cells

CN(Cc1cnc2nc(N)nc(N)c2n1)c1ccc(C(=O)N[C@@H](CCC(=O)O)C(=O)O)cc1 [methotrexate]
drug sensitivity of MSCs compared with cancer cells (in words) ([2]; 5 days treatment): only toxic to A431-mCherry cells | sensitivity of A431 cells (in words) (A431-mCh cells [13]; compared with the other cell lines): extreme sensitivity; also recorded: hypersensitive

O=C1c2c(O)ccc(O)c2C(=O)c2c(NCCNCCO)ccc(NCCNCCO)c21 [mitoxantrone]
apoptosis induction in MSCs (in words) (Ad-MSC 3 cells [1]): not able to induce apoptosis | drug sensitivity of MSCs compared with cancer cells (in words) ([2]; 5 days treatment): required significantly higher concentrations to kill MSCs than cancer cells

COc1ccc(C2=N[C@@H](c3ccc(Cl)cc3)[C@@H](c3ccc(Cl)cc3)N2C(=O)N2CCNC(=O)C2)c(OC(C)C)c1 [nutlin-3]
ROS induction (A431 cells [4]; 30 µM): considerable amount of ROS | apoptosis (in words) (Ad-MSC 3 cells [1]; 30 µM, 120 h): only a slight increase in the number of apoptotic MSCs | type of cell death in MSCs (in words) (Ad-MSC 3 cells [1]): necrotic cell death | DNA damage (γ-H2AX) (A431-mCh cells [5]): massive DNA damage | effect on cultures in live cell imaging (A431-mCh cells [6]; either concentration, p53 mutant): no effect | DNA double-stranded breaks (γ-H2AX) (Ad-MSC-GFP 3 cells [7]): no DNA break was detected | apoptosis (in words) (A431 cells [8]; 30 µM): modest apoptotic response | ROS induction (Ad-MSC 3 cells [10]; 30 µM): considerable amount of ROS | concentration at which significant drops in confluency were seen, as multiple of Ad-MSC-GFP 3 IC50 (Ad-MSC-GFP 3 cells [12]; 120 h live cell imaging): 3 fold

CN[C@@H]1C[C@H]2O[C@@](C)([C@@H]1OC)n1c3ccccc3c3c4c(c5c6ccccc6n2c5c31)C(=O)NC4 [staurosporine]
apoptosis induction in MSCs (in words) (Ad-MSC 3 cells [1]): not able to induce apoptosis

Cn1nnc2c(C(N)=O)ncn2c1=O [temozolomide]
IC50 ([2]; Homo sapiens, all cell lines of the screening, read-out: toxic concentration in the IC50 screening (not toxic even at)): > 1000 µM

CC[C@]1(O)C[C@@H]2CN(CCc3c([nH]c4ccccc34)[C@@](C(=O)OC)(c3cc4c(cc3OC)N(C)[C@H]3[C@@](O)(C(=O)OC)[C@H](OC(C)=O)[C@]5(CC)C=CCN6CC[C@]43[C@@H]65)C2)C1 [vinblastine]
drug sensitivity of MSCs compared with cancer cells (in words) ([2]; 5 days treatment): required significantly higher concentrations to kill MSCs than cancer cells | IC50 values in MSCs relative to cancer cells ([2]; 5 days treatment, MSCs higher than cancer cells): 1000 fold
